Data as given in article PMC5756575, “In Vitro Biotransformation, Safety, and Chemopreventive Action of Novel 8-Methoxy-Purine-2,6-Dione Derivatives” (Applied Biochemistry and Biotechnology, 2017).

Experiments:
rat liver microsomes = assay: Microsomal stability assay; type: in vitro ADME; conditions: 97.88 versus 302.00 μL/min/mg
Procedure: (§1) Compounds 1 and 3 were studied in a biotransformation assay using rat liver microsomes following procedures described previously. The reagents used in this assay were levallorphan (internal standard) and NADPH-regenerating system, which contained phosphate buffer (pH 7.4), NADP^+, glucose-6-phosphate, and glucose-6-phosphate dehydrogenase. The final protein concentration in the assay was 0.4 mg/mL. Compounds 1 and 3 were tested at a final concentration of 20 μM.
(§2) The amount of a parental compound remaining in a solution after biotransformation was monitored using LC-MS/MS as described previously in “Cunninghamella Biotransformation Assay.” Graphs representing ln of percentage of parent compound remaining versus incubation time were drawn to calculate in vitro half-time (t1/2) from the slope of linear regression. To obtain intrinsic clearance (Clint) of a tested compound in rat liver microsomal assay, t1/2 previously calculated was substituted at the equation Clint = [(Vmic/Pmic) × 0.693/t1/2], being Vmic and Pmic the volume of incubation in microliters and the amount of incubated protein in milligrams, respectively.
(§3) Agilent 1100 HPLC system (Agilent Technologies, Waldbronn, Germany) equipped with a Xbridge™ C18 analytical column (2.1 × 30 mm, […]; Waters, Dublin, Ireland) was used in the chromatographic separation of LC-MS/MS analysis. An elution gradient of acetonitrile and water, with 0.1% of formic acid, was used as a mobile phase. MS spectra were taken at Applied Biosystems MDS Sciex API 200 triple quadrupole mass analyzer (Concord, Ontario, Canada) with an electrospray ionization (ESI) interface between HPLC and MS.

[1] = Microsomal stability assay; type: in vitro ADME, rat; conditions: pH 7.4, rat liver microsomes, 20 μM, 0.4 mg/mL protein
Procedure: as §1, §2, §3

mice = tested on: mice; set-up: method as in PMID 25443727, PMID 25560569; conditions: formalin test in mice; cited from earlier work

Compound | Clint, fold lower than imipramine (rat liver microsomes) [fold] | half-life at 20 μM ([1]; read-out: in vitro half-time (t1/2)) [min] | microsomal CLint at 20 μM ([1]; read-out: intrinsic clearance (Clint)) [µL/min/mg] | fold higher activity than acetylsalicylic acid (mice) [fold]
COc1nc2c(c(=O)n(C)c(=O)n2C)n1CCCC(=O)NCc1ccccc1 [Compound 3, N-benzyl-4-(8-methoxy-1,3-dimethyl-2,6-dioxo-purin-7-yl)butanamide] | 3.09 | 17.7 | 97.9 | –
COc1nc2c(c(=O)n(C)c(=O)n2C)n1CCCC(=O)N1CCN(c2ccccc2)CC1 [Compound 4, 8-methoxy-1,3-dimethyl-7-[4-oxo-4-(4-phenylpiperazin-1-yl)butyl]purine-2,6-dione] | – | – | – | 36
